The record followed here is patent US20140179619A1, “POLYPEPTIDE, NUCLEOTIDE SEQUENCE THEREOF, AND METHOD FOR USING THE SAME FOR PREVENTING DNA SYNTHESIS AND INHIBITING CELL PROLIFERATION” (Wuhan Yicheng Biotech, Inc., priority 2011, published 2014).

For one assay, the system named is NIH/3T3. Briefly: Cell cycle distribution by FCM of GFP-positive transfected cells. Type of assay: cell-based. As to the method: (§1) The impact of P15 on cell proliferation is tested with NIH/3T3 (fibroblast and eptithlial cells, purchased from American ATCC, Cat No. CRL-1658) and MCF-7 (breast cancer cell line, purchased from American ATCC, Cat No. HTB-22).
(§2) Plasmid used for experiment: pEGFP-P15 (to express fused protein P15-GFP); control plasmid: pEGFP-N1
(§3) After the plasmid for transfection and the lipofectamine reagent (purchased from American Invitrogen, Cat No. 11668) were mixed, the mixture stayed for 15 minutes at room temperature. Then the mixture was first introduced into cells (with a cell density of about 50%) cultured in DMEM without serum for 5 hours of cultivation at 37° C. and next into SBF with a mass concentration of 10% for 48 hours of cultivation. […] In addition, by the use of FCM, it was easy to separate and purify the positive fluorescent protein cells. The symbolic indicators to test cell proliferation such as cell cycle were used to study and testify the impact of P15 on cell proliferation, while in these experiments, only the cells that express fluorescent proteins were used as control group.
(§4) First, we used the above mentioned plasmid to transfect 3T3 and MCF7, and used FCM to sort the positive GFP cells transfected with DNA and analyzed the cycle distribution of these cells two days later.

Assay [1] deals with MCF-7 (breast cancer cell line). Described as above. Type of assay: cell-based. The conditions noted are these: Cells MCF7, GFP-positive cells sorted two days after transfection. As to the method:
as §1, §2, §3, §4

The subject of a further assay is Cells MCF7. The assay can be described thus: BrdU penetration in DNA (DNA synthesis) in transfected cells. Type of assay: cell-based. As to the method:
(§5) DNA synthesis is the symbol of cell proliferation. In the next experiment, we tested the impact of P15 on DNA synthesis. Within the 15 hours after 3T3 and MCF7 transfecting pEGFP-N 1 and expressing P15-GFP plasmid for two days, the BrdU labeled […] that can penetrate in the newly synthesized DNA chain were added in cell culture fluid. The positive GFP cells in plasmid were detected and transfected with immunofluorescence technique, and the positive rate of BrdU penetration in DNA (this reflects the rate of DNA synthesis) was ascertained.

A further assay concerns Cells 3T3. The assay is described as above. Type of assay: cell-based. As to the method:
as §5

The test system of assay [2] is human granulocytic leukemia cells K562. Briefly: Growth of human leukemia tumor in mice. The conditions noted are these: K562 subcutaneous in mice, tumor weight vs control, injection every other day 7 times, after two weeks; PTD-P15 1 mg, Glivec 10 mcg.
Source text: After 5×10^6human granulocytic leukemia cells K562 injected into the subcutaneous tissue of mice, the mice were randomly divided into five groups. […] After two weeks, the mice were killed, from which the tumors grown in the subcutaneous tissue of the mice were taken out and weighed.
The mark [3] stands for this setting: Cells 3T3, GFP-positive cells sorted two days after transfection.

No end group written: not given here.

In the case of “P15-GFP: fused protein consisted of P15 and GFP, P15 connected to the end N of GFP, expressed from plasmid pEGFP-P15 (MPYSTELIFYIEMDP-{GFP})”, the G0/G1 was 52.1% in the assay on NIH/3T3 (setting [3]) and 85.6% in assay [1]. For the same compound, the G2/M with NIH/3T3 (setting [3]) worked out at 25.7%; in assay [1] it was 3.3%. Moreover, the S in the assay with NIH/3T3 (setting [3]) amounted to 22.1%; in assay [1], 11.1%. Moreover, the “Positive BrdU cells” value in the assay on Cells MCF7 (Cells MCF7, BrdU 15 hours, two days after transfection) is reported as 5.2%; in the assay with Cells 3T3 (Cells 3T3, BrdU 15 hours, two days after transfection), 12.5%. For the same compound, the Inhibition ratio is listed as 83.4% in the assay with Cells MCF7 (Cells MCF7, DNA synthesis, relative to GFP) and 76.8% in the assay on Cells 3T3 (Cells 3T3, DNA synthesis, relative to GFP).

“asparaginic acid-arginine-arginine-asparaginic acid-leucine-tyrosine-asparaginic acid-asparaginic acid-asparaginic acid-asparaginic acid-lysine-asparaginic acid-arginine-methionine-alanine-glycine-threonine-methionine [Control polypeptide]”: the Inhibition ratio in assay [2] was −2%.

As for “methionine-proline-tyrosine-serine-threonine-glutamic acid-leucine-isoleucine-phenylalanine-tyrosine-isoleucine-glutamic acid-methionine-asparaginic acid-proline [P15]”, the “impact on cell apoptosis” value in the assay with NIH/3T3 (expression of P15 in 3T3 and MCF7) is “no obvious impact on cell apoptosis”.

As to `Cc1ccc(NC(=O)c2ccc(CN3CCN(C)CC3)cc2)cc1Nc1nccc(-c2cccnc2)n1` [Glivec], in assay [2], the Inhibition ratio stood at 48%.
